For series [1] the following is noted: known compound; cited from earlier work.
Series [2] in a line: Acute oral toxicity in rats. The settings on record: rat, in vivo, Wistar rats, male, mortality at 7 days, Litchfield-Wilcoxon method.
Series [3] relates to Shay ulcer of rats. As to the kind of experiment: Effect on Shay ulcer of rats (pylorus ligation). In kind it is in vivo, Wistar male rats. The settings on record: for Inhibition rate: ulcer-index 19 h after pylorus ligation. Here is the method: Effect on Shay ulcer of rats
A group of 8 Wistar male rats weighing 130-180 g were used in a group. […] Nineteen hours after ligation, the severity of ulcerous lesions in the proventricular part of the stomach was observed and expressed in a numerical scale according to the method of Adami et al. (Arch. Int. Pharmacodyn. Ther., 143, 113 (1964)) as the ulcer-index. Inhibition of ulceration was calculated with ulcer-indexes of the treated group and those of a control group. The anti-ulcer effects of well-known therapeutic agents on the market, sulpiride and cetraxate, were examined for comparison.

Series [4] in a line: in vivo. As to conditions: mouse, in vivo, po, LD50, ICR mice, mortality at 7 days, Litchfield-Wilcoxon method. Here is the method:
(§1) LD50 was calculated by the Litchfield-Wilcoxon method using mortality at 7 days after drug administration.

Series [5] has as its system ICR mice. As to the kind of experiment: in vivo. As to conditions: Table 4: ICR mice and Wistar rats, acute oral toxicity. On the procedure: as §1
Series [6] relates to histamine-induced ulcer in guinea-pigs. Kind of series: Effect on histamine-induced ulcer in guinea-pigs. In kind it is in vivo, male guinea-pigs. The settings on record: for Inhibition rate: 2 h. Here is the method:
Effect on histamine-induced ulcer in guinea-pigs
Groups of 10 male guinea-pigs weighing 280-300 g were used. […] Two hours later, the stomach was removed and the size of the ulcerous lesions were measured. Based on the size of the lesions, the inhibitory effect of the drug was estimated. The effects of sulpiride, cetraxate and aluminum sucrose sulphate were also determined for comparison.

The subject of series [7] is acetic acid-induced ulcer in rats. As to the kind of experiment: Effect on acetic acid-induced ulcer in rats. In kind it is in vivo, male Wistar rats. As to conditions: for Inhibition rate: lesion size 12 days after acetic acid. On the procedure: Effect on acetic acid-induced ulcer in rats
Groups of 14-16 male Wistar rats weighing 210-280 g were used. According to the method of Okabe et al. (Folia Pharmacologica Japonica, 74, 773 (1978)), 0.015 ml of 20% acetic acid solution was injected under the serous membrane at the border of the proventricular part and glandular part of the stomach. […] The stomach was removed 12 days after the injection of acetic acid and the size of the ulcerous lesions was measured. Based on the size of the lesions, the inhibitory effect of the drug was estimated. The effects of sulpiride were also determined for comparison.

Series [8] can be described thus: Solubility. In kind it is physicochemical.
A short description of series [9]: Stability at room temperature. As to conditions: maleic acid salt. In kind it is physicochemical.
The mark [10] stands for this setting: histamine-induced ulcer, 300 mg/kg, 5 mg/kg i.v. histamine.

Here are results for 4 molecules from patent publication US4447437A, “Pharmaceutical composition and method for treatment of peptic ulcer” (priority 1981, dated 1984).

Counter-ions that a name gives are not always drawn.

In the case of `CN1CCC2=C(C1)c1ccccc1Cc1ccccc12` [MO-8282, 2-N-methyl-1,2,3,4-tetrahydro-9H-dibenzo[a,e]-pyridino[3,4-c]-cycloheptatriene], the “anti-depressive activity (in words)” value in series [1] is recorded as “has anti-depressive activity”. Further, the median lethal dose (LD50) at 168 h was 630 mg/kg in series [2], 454 mg/kg in series [4] (female) and 423 mg/kg in series [4] (male). Also, the “inhibitory action on Shay ulcer (in words)” value in [3] was “significant inhibitory action on Shay ulcer in rats”. The Inhibition rate stood at 34.9% in series [3] (Shay ulcer, 3 mg/kg s.c.); 44.2% in series [3] (Shay ulcer, 10 mg/kg s.c.); 54.7% in series [6] (histamine-induced ulcer, 3 mg/kg orally 10 min before 5 mg/kg i.v. histamine); 98.6% in [6] (histamine-induced ulcer, 10 mg/kg orally 10 min before 5 mg/kg i.v. histamine); 23.2% in series [7] (acetic acid-induced ulcer, 3 mg/kg orally three times a day for 10 days); 51.2% in series [7] (acetic acid-induced ulcer, 10 mg/kg orally three times a day for 10 days). Also, the “efficacy compared with reference drugs (in words)” value in series [3] (Shay ulcer, versus sulpiride and cetraxate) is “superior to the two reference drugs, sulpiride and cetraxate”; in series [6] (histamine-induced ulcer, versus the reference drugs) it was “superior to that of the reference drugs”. The “toxic dose compared with therapeutic dose (in words)” value in series [5] is “considerably higher than its therapeutic dose”. Moreover, in series [6], the “inhibitory action on histamine-induced ulcers (in words)” value is “significant inhibitory action on histamine-induced ulcers in guinea-pigs”. For the same molecule, in [7], the “inhibitory action on acetic acid-induced ulcer (in words)” value is reported as “significant inhibitory action on acetic acid-induced ulcer in rats”. Besides, in series [7] (acetic acid-induced ulcer, microscopic observation), the “promotion of healing (in words)” value was “promotion of healing by the compound was also evident under microscopic observation”. The “efficacy compared with reference drug (in words)” value in series [7] (acetic acid-induced ulcer, versus sulpiride) is recorded as “superior to that of the reference drug with a lower dose”. Moreover, in [8] (ethanol, free base), the “solubility (insoluble in)” value is listed as “insoluble in ethanol”. In addition, the “solubility (soluble in)” value in [8] (solvents in which soluble, free base) is “soluble in ether, ethyl acetate, n-hexane and chloroform”.

On to `NC[C@H]1CC[C@H](C(=O)Oc2ccc(CCC(=O)O)cc2)CC1` [Cetraxate, reference compound], for which the Inhibition rate was 44.2% in series [3] (Shay ulcer, 300 mg/kg) and -7.0% in [6] (setting [10]).

As to `CN1CCC2=C(C1)c1ccccc1Cc1ccccc12` [Maleic acid salt of MO-8282], in series [9], the stability result was “stable at room temperature”. Further, in [8] (water or ethanol, maleic acid salt), the “solubility (soluble in)” value is “soluble in water or ethanol”.

Consider `CCN1CCCC1CNC(=O)c1cc(S(N)(=O)=O)ccc1OC` (stereo not drawn) [Sulpiride, reference compound], for which the Inhibition rate came to 16.3% in series [3] (Shay ulcer, 100 mg/kg); 5.6% in [6] (setting [10]); 43.9% in series [7] (acetic acid-induced ulcer, 100 mg/kg).
